From ChEMBL document CHEMBL3507680, “University of Dundee, Gates Library screen for HepG2 cell viability”

assay: Human HepG2 cell viability assay in 384 well format; assay type: toxicity, cell-based; design: dose 125 nL, time 70.5 hour; cytotoxicity at 70.5 h: concentration not given beside the values; settings: HepG2 cells, read-out: Inhibition

SMILES	cytotoxicity at 70.5 h
O=C(Nc1ccc(CCN2CCOCC2)cc1)C1CCCC1	-3.35%
O=C(N[C@@H]1CN(Cc2ccc3[nH]ccc3c2)C[C@H]1O)c1cscn1	19.9%
Cn1nnnc1SCC1COc2ccccc2O1 (configuration not stated)	0.146%
O=C1CC(c2cccs2)Cc2nc(O)c(C(=O)N3CCCC3)cc21 (configuration not stated)	-4.55%
COc1ccccc1CNCCc1cccc(C(N)=O)c1	-12.3%
CCS(=O)(=O)CCNCc1cc(O)c2cc(C)cc(C)c2n1	0.215%
CO[C@@H]1CCC[C@@H](NC(=O)C(C)(C)c2cccc(F)c2)[C@H]1O	-7.35%
CC1CCN(CCCNC(=O)NC(C)c2nncn2C)CC1 (configuration not stated)	-3.78%
COc1ccc(OCCc2sc(C3(O)CCCNCC3)nc2C)cc1 (configuration not stated)	2.2%
Cc1noc(C)c1-c1cncc(C2CCCN2Cc2cncnc2)n1 (configuration not stated)	-20.4%
Cc1cccc(-c2c[nH]c(C3CCCN3C(=O)C3CCOCC3)n2)c1 (configuration not stated)	-10.3%
O=C(NCC1CCCO1)c1nc2c(s1)CCCN2Cc1ccccc1 (configuration not stated)	-4.02%
CCc1cc(CN(C)C(=O)c2cc(=O)[nH]c(=O)[nH]2)on1	-9.27%
Cc1cccn2cc(CC(=O)N3CCCC(n4cncn4)C3)nc12 (configuration not stated)	-3.85%
Cn1cc(C2CC3(CCN(C(=O)c4ccsc4)CC3)NC2=O)cn1 (configuration not stated)	-0.304%
O=C(Cc1ccccc1)N1CCC2(CC(=O)N(c3ccsc3)C2)C1 (configuration not stated)	-0.17%
O=C(c1ccoc1)N1CCCC1C1CCN(Cc2ccccc2)CC1 (configuration not stated)	23.5%
O=C(c1ccc(Cl)c(Cl)c1)N1CCCCC1C1OCCO1 (configuration not stated)	-4.22%
Cc1noc(C)c1CNC(=O)N1CCN(CC2CC2)CC1	-5.87%
Cc1noc(C)c1CN1CCc2cnn(C)c2C1COCC1CC1 (configuration not stated)	-3.84%
O=C(O)c1nnn(-c2ccccc2F)c1-c1ccncc1	5.16%

SMILES	cytotoxicity at 70.5 h
CCNc1ncc(C(=O)NCCc2ccc(C)c(C)c2)cn1	-4.37%
Cc1ccc(C)c(SCC(=O)Nc2cccc(C(=O)N(C)C)n2)c1	11.9%
Cc1cc(C)n(CC2CCCN2C(=O)c2cccc3c2OCO3)n1 (configuration not stated)	-3.49%
O=C(C1CCOC1)N1CCN(Cc2cccnc2)c2ncccc2C1 (configuration not stated)	-7.36%
Cc1cnn(CC2CCCCN2Cc2nc(-c3ccoc3)no2)c1 (configuration not stated)	-6.01%
O=C(NCCNc1cnccn1)N1CCCCCC1	2.18%
Cc1ccc(C(=O)N2CCCC(Nc3ccc(F)cc3)C2)cc1 (configuration not stated)	-1.63%
O=C(C1CCOc2ccccc21)N1CCOc2cccc(F)c21 (configuration not stated)	4.13%
Cc1oncc1C(=O)N1CCOCC2(CCN(c3ccccn3)C2)C1 (configuration not stated)	-3.11%
COCC(=O)N1CCCC(C(=O)NCc2cc(CC(C)C)on2)C1 (configuration not stated)	27%
CC(C#N)CN(C)Cc1ccc(Cl)c2cccnc12 (configuration not stated)	-3.13%
CCc1nnc2n1CC(CNCc1ccncc1)CC2 (configuration not stated)	-6.39%
NC(=O)CN(Cc1ncc(-c2ccc(F)cc2)o1)C1CCCC1	-14.2%
CCN1C(=O)[C@H]2CN(Cc3cccnc3)C[C@H]2C12CCN(C(C)=O)CC2	-10.7%
O=C(COCCOc1ccccc1)NC1CCN(C(=O)C2CC2)CC1	14.4%
COc1ccc(C)cc1S(=O)(=O)NCC(c1cccn1C)N(C)C (configuration not stated)	-3.74%
CCn1c(C)cc(C(=O)N2CCCC(C(=O)c3nccn3C)C2)c1C (configuration not stated)	19.6%
CC1CN(c2ncccc2C(=O)Nc2cccc3c2CCCC3)CCN1 (configuration not stated)	-5.69%
Cc1nc(-c2ccccc2)sc1CSC(C)C(N)=O (configuration not stated)	-1.25%
CCCn1nnnc1COc1cc(OC)ccc1C(N)=O	-7.31%
Cc1nc[nH]c1CN1CCC2(CC1)CC(Nc1ncccn1)CO2 (configuration not stated)	-94.8%

SMILES	cytotoxicity at 70.5 h
O=C(NCc1ncc[nH]1)c1c(F)cccc1I	11.2%
CC(C)(C)NS(=O)(=O)c1ccccc1CNCc1cccc(O)c1	3.89%
Cc1cnc(NC(=O)N2CCOCC2)s1	-2.62%
CN1CCN(CC2(O)CCN(C(=O)CCc3ccccc3F)C2)CC1 (configuration not stated)	1.21%
O=C(c1ccc2c(c1)OCO2)N1CCN(c2cnccn2)CC1	-3.98%
CCn1c(C2CCCN(Cc3ccnc4ccccc34)C2)nn(C)c1=O (configuration not stated)	-7.68%
CSc1ccccc1C(=O)NCc1cc2n(n1)CCCN(CC(C)C)C2	22.5%
Cc1[nH]nc(-c2ccc(F)cc2)c1CC(=O)NCC1CCOCC1	-9.72%
Cc1cccc(N2CCN(CC(=O)N3CCCC(N(C)C)CC3)CC2)c1 (configuration not stated)	-4.61%
CC(NCc1cccnc1)c1ccc(OCC(=O)NC2CC2)cc1 (configuration not stated)	-8.83%
O=C1CC(c2ccc3c(c2)OCO3)c2c(n3ccsc3nc2=O)N1 (configuration not stated)	-9.84%
O=C(Nc1ccc(F)c(Br)c1)N1CCCC1	-1.36%
Cc1ccccc1C(C(=O)NCCSC(C)C)N(C)C (configuration not stated)	-9.38%
CC(C)N1CCCC(CNC(=O)CN(C)S(=O)(=O)c2ccccc2)C1 (configuration not stated)	-5.65%
CC(C)c1nnc(NC(=O)N(C)Cc2ccc(C(N)=O)cc2)s1	-4.8%
Cc1n[nH]c2c1C(c1ccsc1)SCC(=O)N2 (configuration not stated)	8.67%
Cc1cncnc1C1CCN(C(=O)C2(C)CCCCN2C)CC1 (configuration not stated)	-4.92%
CCOc1nn(CC)cc1-c1nnc(SCc2cccnc2)n1C	-5.3%
Cn1cc(C2CCCN2C(=O)CCCc2cccs2)cn1 (configuration not stated)	-12.4%
CC(Cn1cccn1)NC(=O)N1CCN(Cc2ccncc2)CC1 (configuration not stated)	-5.78%
O=C(CN1CCCS1(=O)=O)Nc1cccc(COC2CCCCC2)c1	-2.5%

SMILES	cytotoxicity at 70.5 h
Cc1nc(CCNC(=O)NCC(O)c2cccc(Cl)c2)cs1 (configuration not stated)	-7.03%
O=C(C1CCCO1)N1CCC2(CC1)COCCN2CC1CC1 (configuration not stated)	2.48%
CS(=O)(=O)NCc1cc(-c2cc(F)cc(F)c2)nc(N2CCCC2)n1	-12.8%
CS(=O)(=O)N1CCN(Cc2c(O)ccc3oc4c(c23)CCCC4)CC1	-10.3%
CC(C)(C)OC(=O)CNC(=O)CCc1nnc(-c2ccsc2)o1	0.905%
Cn1cc(C(=O)N2CCCC2c2ccc3c(c2)OCCO3)ccc1=O (configuration not stated)	-4.05%
NC(=O)C1(Cc2ccccc2-c2ccccc2)CCCN(CC2CC2)C1 (configuration not stated)	-14.5%
CC(C)OCCCNC(=O)[C@@]12CNC[C@@H]1CN(S(C)(=O)=O)C2	13.6%
CNc1nc(CNC(=O)Nc2cccc(COCCOC(C)C)c2)cs1	2.29%
N#Cc1cccc(NC2CC(=O)N(CCc3ccc(F)cc3)C2)n1 (configuration not stated)	28.1%
CN(C)C(=O)CN1CC[C@H]2[C@H]1CCN2c1ncccn1	-20.8%
CCS(=O)(=O)N(C)C(=O)c1cc(C)n(-c2cccc(OC)c2)c1C	27.9%
COc1ccc(OC)c2c(C)cc(N(CCO)CCO)nc12	19.5%
COc1ccc(COCC(=O)N2CCC(c3nncn3C)CC2)cc1	-12.3%
Cc1nc(N(C)C)nc(NCCc2ccccn2)c1C	-9.09%
Cn1cc(C(=O)CC2CCCN2C(=O)c2cncc3ccccc23)cn1 (configuration not stated)	3.04%
O=C(CCN1CCCC1)Nc1c2c(cc3c1CCC3)CCC2	-0.353%
CC(C)C(=O)N1CCN(C(=O)CCc2nnc(-c3ccccc3)o2)CC1	-21.2%
CCN1CCc2cc(-c3cncn3CC(=O)NC(C)(C)C)ccc21	-6.27%
